According to patent US10149644B2, “Curcumin derivatives for amyloid-β plaque imaging” (The General Hospital Corporation, priority 2008, dated 2018):
Read-outs that look alike come from different tables or passages of the source.

Assays:
[1] = Serum stability test; type: in vitro ADME, human; details: for recovery at 2 h, 4 μM: human, human serum, 37° C., ethyl acetate extraction
Description: CRANAD-2 (4.0 μM) was incubated at 37° C. for 2 h with 1.0 mL human serum, then ethyl acetate (4×5.0 mL) was added, stirred at room temperature for 10 min., and centrifuged to give clear organic supernatant. The ethyl acetate solution was subjected to fluorescence intensity measurement (F.I.(660 nm)=8713), and the concentration of CRANAD-2 was calculated (0.14 μM) using the equation (Y=474+61.7 X, where Y is F.I., and X is the concentration) generated from standard curve of CRANAD-2 in ethyl acetate. The recovery of CRANAD-2 was about 70%. After the fluorescence measurement, the ethyl acetate solution was concentrated to 40 μL, and 10 μL was injected for HPLC analysis. By HPLC, the recovery of CRANAD-2 was about 75%, which was close to the result from fluorescence measurement.
Since serum albumin is the most abundant plasma protein, it was important to test whether the probe had any affinity toward this protein. To test this the inventors incubated CRANAD-2 probe with BSA. For controls, the inventors used PBS buffer alone, the probe incubated in PBS alone, and with Aβ40 aggregates. […] In addition, the inventors tested CRANAD-2 stability by incubating the probe (4×10^−6M) with human serum for 2 hours at 37° C.

[2] = target: T1, Aβ40 aggregates (Homo sapiens, UniProt P05067); test: In vitro Aβ aggregates binding constant measurement
T1 construct: Synthetic amyloid-b protein (1-40) was purchased from rPeptide; purchased rPeptide (Bogart, Ga.)
T1 sequence (P05067 672-711 limits assumed): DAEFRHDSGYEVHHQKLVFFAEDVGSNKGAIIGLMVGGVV
Description: […] The Kd binding curve was generated by software Prism 3.0 with nonlinear one-site binding regression.
Binding constant (Kd) of CRANAD-2 towards Aβ aggregates was measured by fluorescence intensity (F.I.) with various concentrations of the prob.

[3] = Log P measurement (octanol/water); type: physicochemical
Description: Log p measurement was performed according to the reported procedure {35}. CRANAD-2 (0.125 mM) in Octanol 2.0 mL was subjected to partition with octanol-saturated water 2.0 mL. The resulting mixture was stirred vigorously for 5 min., and centrifuged at 2,000 rpm for 5 min. The octanol layer was separated from water layer, and its fluorescence spectrum was recorded (excited at 590 nm). The above water layer was partitioned with water-saturated octanol 2.0 mL, and the octanol layer was separated after 5 min. vigorous stirring and 5 min. centrifuge at 2,000 rpm, and its spectrum was recorded. The log P value was calculated by the fluorescence intensity ratio at 690 nm for the above two octanol extractions.
In order for the probe to cross blood brain barrier, its lipophilicity (log P) should be within 2-5 range.

[4] = tested on: Aβ plaques; test: AD tissue staining of APP-PS1 brain sections; details: 25 micron sections, 12-month old APP-PS1 mice
Description: The inventors conducted tissue staining with 25 micron brain sections from 12-month old APP-PS1 mice by all the compounds listed in FIG. 12.

[5] = tested on: Tg2576 mice; test: In vivo NIR imaging
Description: In vivo NIR imaging was performed using Kodak Imaging station 2000MM. For fluorescence excitation, three laser diodes at 660 nm with a total power of 10 mW/cm2 have been used yielding a uniform illumination of the whole animal. The fluorescent light emitted from the sample (mouse) was detected by a charge-coupled device (CCD) camera (Hamamatsu ORCA) equipped with a focusing lens system (macro lens 60 mm, 1:2.8, Nikon). The image matrix comprised of 532×256 pixels. A bandpass filter was used for the selection of the detection wavelength (700 nm). Integration time default was selected at 30 s. Images were acquired Kodak 1DTM 3.6.3 Network software and analysed using the Kodak™ 1D Analysis software.
Mice (n=3 for Tg2576 and n=3 for the littermates) were shaved before background imaging, and were i.v. injected CRANAD-2 (5.0 mg/kg) for each mouse. Fluorescence signals from the brain were recorded at pre-injection, and 10 min., 30 min., 60 min., 120 min., 240 min., and 480 min. after intravenous injection of the probe. To evaluate our imaging results, an ROI was drawn around the brain region, and the data were analyzed by the following modified equation (1) {24}, where Irel(t) is the relative fluorescence intensity at the certain time point, I(t) is the measured ROI value at this time point, I(pre) is the pre-injection background, and I(30) is the reading at 30 min. Since pre-injection background varied in different mice, this equation allowed us to correct for it. Fluorescence intensity decay curves were then generated based on this equation. Irel(t)=(I(t)−I(pre))/(I(30)−I(pre)) (1)
For in vivo specific binding (SP), the calculation was based on equation (2), where Irel(tg) is the relative fluorescence intensity of Tg2576, and Irel(contr) is the relative fluorescence intensity of the control littermates. P values were calculated by Student test. SP(t)={Irel(tg)−Irel(contr)}/Irel(tg) (2) Ex Vivo Histological Correlation.
Transgenic 11-month and 19-month old Tg2576 mice were used to validate the feasibility of CRANAD-2 as NIR imaging probe. Aged-matched wild type littermates served as controls. Images were recorded before and after i.v. injection of CRANAD-2 at 5.0 mg/Kg dosage. […] Furthermore, the signals from 19-month old Tg2576 (FIG. 11D) were remarkably brighter at all time points.
Semi-quantitative analysis of these images was conducted with selected region of interested (ROI), and two sets of data were generated. By normalizing the fluorescence intensity to that of 30 min. after the injection of the probe, we were able to create four well-fit decay curves with non-linear regression for two binding site model (Prism 3.0) for both 11- and 19-months old groups (R2=0.96, 0.97, 0.97, and 0.94 for 11-month control, tg2576, and 19-month control and tg2576 respectively) (FIG. 9A). By normalizing the signal to background fluorescence intensity (Fpre), and using the ratio between fluorescence intensity at time points studied ((F(t)) and Fpre) we could compare the signal change in Tg2576 group to that of the control group (FIGS. 9B,C)(e.g. F(t)/Fpre). Details of these methods are described in Materials and Methods contained herein.

[6] = target: T1, Aβ40 aggregates; test: Aβ aggregates detection in solution by fluorescence spectrum; type: binding; details: 250 nM compound, 250 nM Aβ40 aggregates, PBS, one minute
Description: They then incubated 250 nM of the compounds with 250 nM of Aβ40 aggregates (calculation based on monomer) in PBS for one minute, and then measured the fluorescence spectra of the solutions.

**Q.** Which “Stability in serum in vitro” value [1] does the source give for CN(C)c1ccc(/C=C/C2=CC(/C=C/c3ccc(N(C)C)cc3)=[O+][B-](F)(F)O2)cc1 [CRANAD-2] here?
**A.** considerable stability in serum

**Q.** And the recovery at 2 h, 4 μM ([1]; read-out: Recovery after serum incubation, by HPLC)?
**A.** ~75%

**Q.** And the recovery at 2 h, 4 μM ([1]; read-out: Recovery after serum incubation, by fluorescence)?
**A.** ~70%

**Q.** And the “Affinity to Aβ aggregates” value [2]?
**A.** high affinity to Aβ aggregates

**Q.** What about the Kd ([2]; Aβ40 aggregates in PBS, fluorescence intensity, nonlinear one-site regression, read-out: Binding constant (Kd) towards Aβ aggregates) of the same compound?
**A.** 38.7 ± 2.77 nM

**Q.** What about the logP [3] of the same compound?
**A.** 3

**Q.** What about the “Staining of plaques in brain sections” value [4] of the same compound?
**A.** good staining

**Q.** What about the “Staining of plaques in brain sections” value ([4]; listed as CRANAD2) of the same compound?
**A.** stained the plaques brightly

**Q.** And the “Declining of brain fluorescence signals, Tg2576 vs control” value ([5]; 5.0 mg/kg i.v., 11- and 19-month old)?
**A.** considerably slower

**Q.** And the “Difference in F(t)/Fpre, Tg2576 vs control” value (shortened to “Difference in F(t)/Fpre”) ([5]; 11-month old, 120 min)?
**A.** 0.52

**Q.** And the “Difference in relative fluorescence decay Irel(t), Tg2576 vs control” value ([5]; 11-month old, 120 min, 5.0 mg/kg i.v.)?
**A.** 23%

**Q.** What about the “Difference in F(t)/Fpre” value ([5]; 11-month old, 240 min) of the same compound?
**A.** 0.45

**Q.** And the “Difference in relative fluorescence decay Irel(t), Tg2576 vs control” value ([5]; 11-month old, 240 min, 5.0 mg/kg i.v.)?
**A.** 16%

**Q.** What about the “Difference in F(t)/Fpre” value ([5]; 19-month old, 120 min) of the same compound?
**A.** 0.43

**Q.** What about the “Difference in relative fluorescence decay Irel(t), Tg2576 vs control” value ([5]; 19-month old, 120 min, 5.0 mg/kg i.v.) of the same compound?
**A.** 20%

**Q.** What about the “Difference in F(t)/Fpre” value ([5]; 19-month old, 240 min) of the same compound?
**A.** 0.65

**Q.** What about the “Difference in relative fluorescence decay Irel(t), Tg2576 vs control” value ([5]; 19-month old, 240 min, 5.0 mg/kg i.v.) of the same compound?
**A.** 30%

**Q.** And the “Fluorescence intensity, transgenic vs control groups” value ([5]; 30, 60, 120 and 240 min after injection)?
**A.** higher than that of the control groups

**Q.** And the “Slower decay rate, 19-month vs 11-month old Tg2576” value ([5]; 120 min)?
**A.** 11%

**Q.** And the “"Smart" amplification factor in vivo (ratio>1.0 = smart)” value ([5]; 120 min and 240 min, 11- and 19-month groups)?
**A.** “smart” probe in vivo

**Q.** What about the “Slower decay rate, 19-month vs 11-month old Tg2576” value ([5]; 240 min) of the same compound?
**A.** 13%

**Q.** And the “Fluorescence intensity change with Aβ40 aggregates” value [6]?
**A.** intensity increases

**Q.** And the “Wavelength shift with Aβ40 aggregates” value [6]?
**A.** wavelength blue-shifts
